Key:
[1] = test system: barnyardgrass (Echinochloa crus-galli); experiment: Test A preemergence, visual injury rating 0-100 (0 no effect, 100 complete control); format: in vivo; conditions: for Barnyardgrass plant response rating (0 to 100 scale): 125 g ai/ha
[2] = test system: kochia (Kochia scoparia); experiment: Test A preemergence, visual injury rating 0-100; format: in vivo; conditions: for Kochia plant response rating (0 to 100 scale): 125 g ai/ha
[3] = test system: ryegrass, Italian (Italian ryegrass, Lolium multiflorum); experiment: Test A preemergence, visual injury rating 0-100; format: in vivo; conditions: for Ryegrass, Italian plant response rating (0 to 100 scale): 125 g ai/ha
[4] = test system: foxtail, giant (giant foxtail, Setaria faberii); experiment: Test A preemergence, visual injury rating 0-100; format: in vivo; conditions: for Foxtail, Giant plant response rating (0 to 100 scale): 125 g ai/ha
[5] = test system: pigweed (Amaranthus retroflexus); experiment: Test A preemergence, visual injury rating 0-100; format: in vivo; conditions: for Pigweed plant response rating (0 to 100 scale): 125 g ai/ha
[6] = test system: ragweed (common ragweed, Ambrosia elatior); experiment: Test A preemergence, visual injury rating 0-100; format: in vivo; conditions: for Ragweed plant response rating (0 to 100 scale): 125 g ai/ha
[7] = test system: kochia (Kochia scoparia); experiment: Test A postemergence, visual injury rating 0-100; format: in vivo; conditions: 0 to 100 scale
Excerpt: (§1) Seeds of plant species selected from barnyardgrass (Echinochloa crus-galli), kochia (Kochia scoparia), ragweed (common ragweed, Ambrosia elatior), ryegrass, Italian (Italian ryegrass, Lolium multiflorum), foxtail, giant (giant foxtail, Setaria faberii), foxtail, green (green foxtail, Setaria viridis), and pigweed (Amaranthus retroflexus) were planted into a blend of loam soil and sand and treated preemergence with a directed soil spray using test chemicals formulated in a non-phytotoxic solvent mixture which included a surfactant.
(§2) At the same time, plants selected from these weed species and also wheat (Triticum aestivum), corn (Zea mays), blackgrass (Alopecurus myosuroides), and galium (catchweed bedstraw, Galium aparine) were planted in pots containing the same blend of loam soil and sand and treated with postemergence applications of test chemicals formulated in the same manner. Plants ranged in height from 2 to 10 cm and were in the one- to two-leaf stage for the postemergence treatment. Treated plants and untreated controls were maintained in a greenhouse for approximately 10 days, after which time all treated plants were compared to untreated controls and visually evaluated for injury. […] A dash (-) response means no test result.

[8] = test system: ryegrass, Italian (Italian ryegrass, Lolium multiflorum); experiment: Test A postemergence, visual injury rating 0-100; format: in vivo; conditions: 0 to 100 scale
Excerpt: as §1, §2

[9] = test system: foxtail, giant (giant foxtail, Setaria faberii); experiment: Test A postemergence, visual injury rating 0-100; format: in vivo; conditions: 0 to 100 scale
Excerpt: as §1, §2

[10] = test system: pigweed (Amaranthus retroflexus); experiment: Test A postemergence, visual injury rating 0-100; format: in vivo; conditions: 0 to 100 scale
Excerpt: as §1, §2

[11] = test system: barnyardgrass (Echinochloa crus-galli); experiment: Test A postemergence, visual injury rating 0-100; format: in vivo; conditions: 0 to 100 scale
Excerpt: as §1, §2

[12] = test system: ragweed (common ragweed, Ambrosia elatior); experiment: Test A postemergence, visual injury rating 0-100; format: in vivo; conditions: 0 to 100 scale
Excerpt: as §1, §2

[13] = test system: galium (catchweed bedstraw, Galium aparine); experiment: Test A postemergence, visual injury rating 0-100; format: in vivo; conditions: 0 to 100 scale
Excerpt: as §1, §2

[14] = test system: blackgrass (Alopecurus myosuroides); experiment: Test A postemergence, visual injury rating 0-100; format: in vivo; conditions: 0 to 100 scale
Excerpt: as §1, §2

[15] = test system: wheat (Triticum aestivum); experiment: Test A postemergence, visual injury rating 0-100; format: in vivo; conditions: 0 to 100 scale
Excerpt: as §1, §2

[16] = test system: corn (Zea mays); experiment: Test A postemergence, visual injury rating 0-100; format: in vivo; conditions: 0 to 100 scale
Excerpt: as §1, §2

[17] = test system: rice (Oryza sativa); experiment: Test B flooded paddy test, visual rating 0-100 (0 no effect, 100 complete control); conditions: Flood, 250 g ai/ha, applied to paddy water, rated after 13 to 15 days
[18] = test system: ducksalad (Heteranthera limosa); experiment: Test B flooded paddy test, visual rating 0-100; conditions: Flood, 250 g ai/ha, applied to paddy water, rated after 13 to 15 days
[19] = test system: barnyardgrass (Echinochloa crus-galli); experiment: Test B flooded paddy test, visual rating 0-100; conditions: Flood, 250 g ai/ha, applied to paddy water, rated after 13 to 15 days
[20] = 31 g ai/ha, 0 to 100 scale (0 no effect, 100 complete control), approx. 10 days

Compound | Barnyardgrass plant response rating (0 to 100 scale) [1] | Kochia plant response rating (0 to 100 scale) [2] | Ryegrass, Italian plant response rating (0 to 100 scale) [3] | Foxtail, Giant plant response rating (0 to 100 scale) [4] | Pigweed plant response rating (0 to 100 scale) [5] | Ragweed plant response rating (0 to 100 scale) [6] | Kochia plant response rating ([7]; 125 g ai/ha) | Ryegrass, Italian plant response rating ([8]; 125 g ai/ha) | Foxtail, Giant plant response rating ([9]; 125 g ai/ha) | Pigweed plant response rating ([10]; 125 g ai/ha) | Barnyardgrass plant response rating ([11]; 125 g ai/ha) | Ragweed plant response rating ([12]; 125 g ai/ha) | Galium plant response rating ([13]; 125 g ai/ha) | Blackgrass plant response rating ([14]; 125 g ai/ha) | Wheat plant response rating ([15]; 125 g ai/ha) | Corn plant response rating ([16]; 125 g ai/ha) | Rice plant response rating (0 to 100 scale) [17] | Ducksalad plant response rating (0 to 100 scale) [18] | Barnyardgrass plant response rating (0 to 100 scale) [19] | other results
CC1=[N+]([O-])C(C(=O)Nc2cccc(F)c2F)C(c2ccccc2C)C1 (racemic) [Compound 11] | 80 | 0 | 0 | 90 | 0 | 40 | 0 | 0 | 30 | 0 | 40 | 0 | 0 | 0 | 0 | 0 | 15 | 100 | 90 | Barnyardgrass plant response rating ([1]; 500 g ai/ha, 0 to 100 scale): 100; Kochia plant response rating ([2]; 500 g ai/ha, 0 to 100 scale): 0; Ryegrass, Italian plant response rating ([3]; 500 g ai/ha, 0 to 100 scale): 0; Foxtail, Giant plant response rating ([4]; 500 g ai/ha, 0 to 100 scale): 100; Pigweed plant response rating ([5]; 500 g ai/ha, 0 to 100 scale): 0; Ragweed plant response rating ([6]; 500 g ai/ha, 0 to 100 scale): 30; Kochia plant response rating ([7]; 500 g ai/ha): 0; Ryegrass, Italian plant response rating ([8]; 500 g ai/ha): 0; Foxtail, Giant plant response rating ([9]; 500 g ai/ha): 90; Pigweed plant response rating ([10]; 500 g ai/ha): 0; Barnyardgrass plant response rating ([11]; 500 g ai/ha): 90; Ragweed plant response rating ([12]; 500 g ai/ha): 0; Galium plant response rating ([13]; 500 g ai/ha): 20; Blackgrass plant response rating ([14]; 500 g ai/ha): 0; Wheat plant response rating ([15]; 500 g ai/ha): 20; Corn plant response rating ([16]; 500 g ai/ha): 0
CC1=[N+]([O-])C(C(=O)Nc2cccc(F)c2F)C(c2ccc(F)c(Oc3ccc(F)cn3)c2)C1 (racemic) [Compound 48] | 90 | 0 | 20 | 90 | 0 | 0 | 0 | 30 | 0 | 30 | 0 | 30 | 40 | 70 | 0 | 0 | 10 | 70 | 20 | Barnyardgrass plant response rating [1, 20]: 0; Kochia plant response rating [2, 20]: 0; Ryegrass, Italian plant response rating [3, 20]: 0; Foxtail, Giant plant response rating [4, 20]: 0; Pigweed plant response rating [5, 20]: 0; Ragweed plant response rating [6, 20]: 0; Kochia plant response rating ([7]; 31 g ai/ha): 0; Ryegrass, Italian plant response rating ([8]; 31 g ai/ha): 30; Foxtail, Giant plant response rating ([9]; 31 g ai/ha): 0; Pigweed plant response rating ([10]; 31 g ai/ha): 0; Barnyardgrass plant response rating ([11]; 31 g ai/ha): 0; Ragweed plant response rating ([12]; 31 g ai/ha): 0; Galium plant response rating ([13]; 31 g ai/ha): 20; Blackgrass plant response rating ([14]; 31 g ai/ha): 30; Wheat plant response rating ([15]; 31 g ai/ha): 0; Corn plant response rating ([16]; 31 g ai/ha): 0

From patent publication US11498899B2, “Nitrone herbicides” (FMC Corporation, priority 2016, dated 2022)
